Laboratory results taken from US20240082416A1, “AMATOXIN ANALOGS AND USES THEREOF” (THE UNIVERSITY OF BRITISH COLUMBIA, priority 2020, published 2024).
Where “and” joins values, the source holds several entries; their conditions need not be identical. Identical values can stand only once. Starred links: 1 amine or outer side, 2 acyl side, 3 side chain; linkers in the order of their positions; H or OH if unused. Positions of bridges follow the written chain, without caps; N, C: chain ends. Non-standard residues stand in square brackets, D forms with d. Residues, ends and D or L forms follow the SMILES beside them. Trp(2-yl) = O=C([C@H](Cc1c([*:3])[nH]c2ccccc12)N[*:1])[*:2]; Pro(trans-4-guanidino) = N=C(N)N[C@H]1CN[C@H](C(=O)O)C1; Pro(4R-SH) = O=C([C@@H]1C[C@@H](S[*:3])CN1[*:1])[*:2]; Ile(4R-OH,5-OH) = C[C@H]([C@H](N)C(=O)O)[C@@H](O)CO; X1 = N#C[C@@H]1C[C@@H](C(=O)[*:2])N([*:1])C1; Pro(4R-NH2) = N[C@H]1CN[C@H](C(=O)O)C1

What was measured:
Pol II = target: T1, Pol II (Homo sapiens, UniProt P24928); assay: In vitro transcription runoff assay using HeLaScribe nuclear extract; assay type: biochemical; conditions: for Transcription activity E (%): mean ± standard deviation
T1 construct: HeLaScribe® nuclear extract containing Pol II and all other transcription factors; purchased Promega; host or cells: HeLa nuclear extract (endogenous protein)
From the text: (h) In vitro transcription assay of synthetic amanitins containing analogs of Hyp: Primers were purchased from IDT via standard phosphoramidite chemistry. dNTP and rNTP were purchased from Thermofisher. GoTaq polymerase and HeLaScribe*Nuclear Extract in vitro Transcription System was purchased from Promega. Taq polymerase was purchased from NEB. [^32P] α-dGTP (3000 Ci/mmol 10 mCi/ml EasyTide) and [^32P] α-GTP (3000 Ci/mmol 10 mCi/ml EasyTide) were purchased from Perkin Elmer. QIAquick PCR purifcation kit was purchased from Qiagen. AcGFP1-N1 was a gift (Addgene plasmid #54705; http://n2t.net/addgene:54705; RRID:Addgene_54705). DNA Primer sequences were:
The DNA template for transcription runoff was synthesized by PCR with template pAcGFP-N1, and primers P1 and P2. To a final volume of 20 μL, 1 x GoTaq Buffer, 250 μM of each dNTP, 500 nM of each primers P1 and P2, […] pAcGFP-N1 and 0.05 U/μL GoTaq were employed to thermocycle for 30 cycles (30 s at 95° C., 30 s at 50° C. and 60 s at 72° C., Bio-Rad). A 1 μL aliquot of the amplified solution was resolved with 6×DNA loading dye in a 1% agarose gel containing […] and then visualized using GelDoc XR imager (Bio-Rad). Purification was completed via QIAquick PCR purification kit (Qiagen). The radioactive chromatographic standard was synthesized by PCR with template pAcGFP-N1, and primers P3 and P4. To a final volume of 50 μL, 1 x Thermopol Buffer, 200 μM of each dNTP, 500 nM of each primers P3 and P4, 10 pg/μL pAcGFP-N1 and 0.02 U/μL Vent polymerase, 1 μL [^32P] α-dGTP were employed to thermocycle for 30 cycles (30 s at 95° C., 30 s at 62° C. and 30 s at 72° C., Bio-Rad). A 1 μL aliquot of the amplified solution was resolved with 6×DNA loading dye in 8% denaturing PAGE and then visualized by autoradiography via the Typhoon 9200 imager (Molecular namics-Amersham-GE). Purification was completed via QIAquick PCR purification kit (Qiagen). The transcription runoff assay was modified from HeLaScribe® Nuclear Extract in vitro Transcription System (Promega). […]. The pellet was resolved by 8% denaturing PAGE and then visualized by autoradiography via the Typhoon 9200 imager (Molecular dynamics-Amersham-GE). Dosimetry was calculated by ImageJ, and the 3 parameter logistic fit was completed by Origin 2019 (OriginLab). […]
All data were presented in mean±standard deviation (n=3).

[1] = Cell viability assay (BrdU incorporation) on HEK293-OATP1B3 cells; assay type: cell-based, human; conditions: human, HEK293 cells overexpressing OATP1B3 (HEK293-OATP1B3); highest used concentration of 1 μM; HEK293-OATP1B3 cells
Procedure: . HEK293 and HEK-OATP1B3 cells were plated at 2.5×10^3 cells/well in a 1:1 mixture of Ham's F12 with DMEM containing 10% charcoal-stripped fetal calf serum (FCS) onto poly-D-lysine-coated 96-well plates and grown for 24 hours. Subsequently, cells were incubated with amanitin analogs at 8 different concentrations (1×10^−6 M to 1.28×10^−11 M, serial 1:5 dilutions). Following 96 h of drug exposure, cell viability was determined by a BrdU incorporation assay (Cell Proliferation ELISA, BrdU, Roche) and chemiluminescence was measured using a FLUOstar Optima plate reader (BMG LABtech). Data analysis was performed with GraphPad Prism 8 (GraphPad Software, Inc., La Jolla, CA) software to plot curve fits.

CHO cells = assay: Viability assay against CHO cells (MTT colorimetric assay); assay type: cell-based, Chinese hamster; conditions: 72 h, replicates n = 1, 2, 3
[2] = IC50 (nM), Table 11, 3 parameter logistic fit
[3] = IC50 (nM), Table 12, n = 3, high values estimated from activity at [I]=1.0 μM

Structure (SMILES) | Transcription activity E (%) (Pol II; 10 nM) | Transcription activity E (%) (Pol II; 30 nM) | Transcription activity E (%) (Pol II; 100 nM) | Transcription activity E (%) (Pol II; 300 nM) | Transcription activity E (%) (Pol II; 1000 nM) | IC50 (Pol II; [2]) [nM] | IC50 (Pol II; [3]) [nM] | viability at 96 h, 1 µM [1] [%] | IC50 (Pol II; IC50) [nM] | Transcription activity E (%) (Pol II; 3000 nM) | further results
CC[C@H](C)[C@@H]1NC(=O)CNC(=O)[C@@H]2Cc3c([nH]c4ccccc34)SC[C@H](NC(=O)CNC1=O)C(=O)N[C@@H](CC(N)=O)C(=O)N1C[C@H](C#N)C[C@H]1C(=O)N[C@@H]([C@@H](C)[C@@H](O)CO)C(=O)N2 [Compound 4, CN-Pro-amanitin] (cyclo(CN[X1][Ile(4R-OH,5-OH)][Trp(2-yl)]GIG); thioether 1-5) | 80.7 ± 7.9 | 64.8 ± 7.4 | 74.0 ± 13.0 | 72.4 ± 9.7 | 52.3 ± 17.0 | 480 ± 380 | 480 ± 380 | 43 |  |  | % viable cells (CHO cells; 1e-005 M, listed as CN-Pro-amanitin (4)): 90%; % viable cells (CHO cells; 1.25e-006 M, listed as CN-Pro-amanitin (4)): 91% and 92%; % viable cells (CHO cells; 1.56e-007 M, listed as CN-Pro-amanitin (4)): 93% and 87%; % viable cells (CHO cells; 2e-005 M, listed as CN-Pro-amanitin (4)): 118% and 108%; % viable cells (CHO cells; 2.5e-006 M, listed as CN-Pro-amanitin (4)): 91% and 87%; % viable cells (CHO cells; 3.125e-007 M, listed as CN-Pro-amanitin (4)): 92% and 90%; % viable cells (CHO cells; 5e-006 M, listed as CN-Pro-amanitin (4)): 92% and 90%; % viable cells (CHO cells; 6.25e-007 M, listed as CN-Pro-amanitin (4)): 89% and 92%
CC[C@H](C)[C@@H]1NC(=O)CNC(=O)[C@@H]2Cc3c([nH]c4ccccc34)SC[C@H](NC(=O)CNC1=O)C(=O)N[C@@H](CC(N)=O)C(=O)N1C[C@H](S)C[C@H]1C(=O)N[C@@H]([C@@H](C)[C@@H](O)CO)C(=O)N2 [Compound 5, SH-Pro-amanitin] (cyclo(CN[Pro(4R-SH)][Ile(4R-OH,5-OH)][Trp(2-yl)]GIG); thioether 1-5) | 78.5 ± 26.6 | 99.6 ± 11.6 | 91.2 ± 18.5 | 71.2 ±19.0 | 50.3 ± 20.8 | 910 ± 330 | 910 ± 330 | 50 | 910 ± 230 |  | % viable cells (CHO cells; 1e-005 M, listed as SH-Pro-amanitin (5)): 95%; % viable cells (CHO cells; 1.25e-006 M, listed as SH-Pro-amanitin (5)): 92%; % viable cells (CHO cells; 2e-005 M, listed as SH-Pro-amanitin (5)): 97%; % viable cells (CHO cells; 2.5e-006 M, listed as SH-Pro-amanitin (5)): 99%; % viable cells (CHO cells; 3.125e-007 M, listed as SH-Pro-amanitin (5)): 90%; % viable cells (CHO cells; 5e-006 M, listed as SH-Pro-amanitin (5)): 90% and 96%; % viable cells (CHO cells; 6.25e-007 M, listed as SH-Pro-amanitin (5)): 92% and 95%; % viable cells (CHO cells; 7.8e-008 M, listed as SH-Pro-amanitin (5)): 89%
CC[C@H](C)[C@@H]1NC(=O)CNC(=O)[C@@H]2Cc3c([nH]c4ccccc34)SC[C@H](NC(=O)CNC1=O)C(=O)N[C@@H](CC(N)=O)C(=O)N1C[C@H](N)C[C@H]1C(=O)N[C@@H]([C@@H](C)[C@@H](O)CO)C(=O)N2 [Compound 6, NH2-Pro-amanitin] (cyclo(CN[Pro(4R-NH2)][Ile(4R-OH,5-OH)][Trp(2-yl)]GIG); thioether 1-5) |  | 91.7 ± 9.3 | 82.3 ± 12.8 | 55.0 ± 23.6 | 38.6 ± 18.3 | 550 ± 90 | 550 ± 90 | 33 | 550 ± 90 | 19.8 ± 9.9 | % viable cells (CHO cells; 1e-005 M, listed as NH2-Pro-amanitin (6)): 81% and 83%; % viable cells (CHO cells; 1.25e-006 M, listed as NH2-Pro-amanitin (6)): 88%; % viable cells (CHO cells; 1.56e-007 M, listed as NH2-Pro-amanitin (6)): 97%; % viable cells (CHO cells; 2e-005 M, listed as NH2-Pro-amanitin (6)): 89% and 85%; % viable cells (CHO cells; 2.5e-006 M, listed as NH2-Pro-amanitin (6)): 85% and 82%; % viable cells (CHO cells; 5e-006 M, listed as NH2-Pro-amanitin (6)): 79% and 84%; % viable cells (CHO cells; 6.25e-007 M, listed as NH2-Pro-amanitin (6)): 85%; % viable cells (CHO cells; 7.8e-008 M, listed as NH2-Pro-amanitin (6)): 89%
CC[C@H](C)[C@@H]1NC(=O)CNC(=O)[C@@H]2Cc3c([nH]c4ccccc34)SC[C@H](NC(=O)CNC1=O)C(=O)N[C@@H](CC(N)=O)C(=O)N1C[C@H](NC(=N)N)C[C@H]1C(=O)N[C@@H]([C@@H](C)[C@@H](O)CO)C(=O)N2 [Compound 7, Gdn-Pro-amanitin] (cyclo(CN[Pro(trans-4-guanidino)][Ile(4R-OH,5-OH)][Trp(2-yl)]GIG); thioether 1-5) |  | 77.3 ± 9.0 | 76.1 ± 13.2 | 56.6 ± 11.6 | 31.3 ± 5.8 | 410 ± 80 | 410 ± 80 | 86 | ~400 | 14.1 ± 7.1 | IC50 fold higher than that of the natural product (Pol II; vs α-amanitin): approximately 50 fold; % viable cells (CHO cells; 1e-005 M, listed as Gdn-Pro-amanitin (7)): 102%; % viable cells (CHO cells; 1.25e-006 M, listed as Gdn-Pro-amanitin (7)): 86%; % viable cells (CHO cells; 1.56e-007 M, listed as Gdn-Pro-amanitin (7)): 91% and 80%; % viable cells (CHO cells; 2e-005 M, listed as Gdn-Pro-amanitin (7)): 101%; % viable cells (CHO cells; 2.5e-006 M, listed as Gdn-Pro-amanitin (7)): 82%; % viable cells (CHO cells; 3.125e-007 M, listed as Gdn-Pro-amanitin (7)): 86%; % viable cells (CHO cells; 6.25e-007 M, listed as Gdn-Pro-amanitin (7)): 83% and 84%; % viable cells (CHO cells; 7.8e-008 M, listed as Gdn-Pro-amanitin (7)): 92%
